Test results reported in patent publication US10689399B2, “Substituted 3,4,5,6,8,10,14,14a-octahydro-2h-2,6-methanopyrido[1′,2′:4,5]pyrazino[2,1-b][1,3]oxazocines and methods for treating viral infections” (Gilead Sciences, Inc., priority 2012, dated 2020).
Like-named read-outs stand apart in the source and are kept apart here.

Tested on: HIV-IIIb
Assay: Antiviral assay in MT4 cells
Format: cell-based
Settings: Human immunodeficiency virus 1, IIIB, MT4, 120 h
Method: For the antiviral assay utilizing MT4 cells, 0.4 μL of 189X test concentration of 3-fold serially diluted compound in DMSO was added to 40 μL of cell growth medium (RPMI 1640, 10% FBS, 1% penicilline/Streptomycine, 1% L-Glutamine, 1% HEPES) in each well of 384-well assay plates (10 concentrations) in quidruplicate.
1 mL aliquots of 2×10^6 MT4 cells are pre-infected for 1 and 3 hours respectively at 37° C. with 25 μL (MT4) or of either cell growth medium (mock-infected) or a fresh 1:250 dilution of an HIV-IIIb concentrated ABI stock (0.004 m.o.i. for MT4 cells). Infected and uninfected cells are diluted in cell growth medium and 35 μL of 2000 (for MT4) cells is added to each well of the assay plates.
Assay plates were then incubated in a 37° C. incubator. After 5 days of incubation, 25 μL of 2× concentrated CellTiter-Glo™ Reagent (catalog # G7573, Promega Biosciences, Inc., Madison, Wis.) was added to each well of the assay plate. Cell lysis was carried out by incubating at room temperature for 2-3 minutes, and then chemiluminescence was read using the Envision reader (PerkinElmer).

[1] = MT4 cells infected with HIV-IIIb, 5 days, CellTiter-Glo, read-out: EC50 nM in MT-4
[2] = read-out: EC50 nM in MT-4, MT4 cells infected with HIV-IIIb, 5 days, CellTiter-Glo

SMILES | EC50 [1] | EC50 [2]
O=C(NCc1ccc(F)cc1F)c1cn2c(c(O)c1=O)C(=O)N1C(C2)[N@]2CCC[C@H]1C2 (stereo partly drawn) [Compound 19, (1R,5S)—N-(2,4-difluorobenzyl)-8-hydroxy-7,9-dioxo-2,3,4,5,7,9,13,13a-octahydro-1,5-methanopyrido[1′,2′:4,5]pyrazino[1,2-a][1,3]diazepine-10-carboxamide] | 2.8 nM | 
O=C(NCc1ccc(F)cc1F)c1cn2c(c(O)c1=O)C(=O)N1C(C2)[N@@]2CCC[C@@H]1C2 (stereo partly drawn) [Compound 20, (1S,5R)—N-(2,4-difluorobenzyl)-8-hydroxy-7,9-dioxo-2,3,4,5,7,9,13,13a-octahydro-1,5-methanopyrido[1′,2′:4,5]pyrazino[1,2-a][1,3]diazepine-10-carboxamide] | 3.3 nM | 
C[C@H](NC(=O)c1cn2c(c(O)c1=O)C(=O)N1[C@@H]3CC[C@@H](C3)O[C@H]1C2)c1ccc(F)cc1 [Compound 21, (2S,5R,13aS)—N—((S)-1-(4-fluorophenyl)ethyl)-8-hydroxy-7,9-dioxo-2,3,4,5,7,9,13,13a-octahydro-2,5-methanopyrido[1′,2′:4,5]pyrazino[2,1-b][1,3]oxazepine-10-carboxamide] | 38.3 nM | 
C[C@H](NC(=O)c1cn2c(c(O)c1=O)C(=O)N1[C@H]3CC[C@H](C3)O[C@@H]1C2)c1ccc(F)cc1 [Compound 22, (2R,5S,13aR)—N—((S)-1-(4-fluorophenyl)ethyl)-8-hydroxy-7,9-dioxo-2,3,4,5,7,9,13,13a-octahydro-2,5-methanopyrido[1′,2′:4,5]pyrazino[2,1-b][1,3]oxazepine-10-carboxamide] | 64.3 nM | 
O=C(NCc1ccccc1F)c1cn2c(c(O)c1=O)C(=O)N1[C@@H]3CC[C@@H](C3)O[C@H]1C2 [Compound 23, (2 S,5R,13aS)—N-(2-fluorobenzyl)-8-hydroxy-7,9-dioxo-2,3,4,5,7,9,13,13a-octahydro-2,5-methanopyrido[1′,2′:4,5]pyrazino[2,1-b][1,3]oxazepine-10-carboxamide] | 2.3 nM | 
O=C(NCc1cc(F)cc(F)c1)c1cn2c(c(O)c1=O)C(=O)N1[C@@H]3CC[C@@H](C3)O[C@H]1C2 [Compound 24, (2 S,5R,13aS)—N-(3,5-difluorobenzyl)-8-hydroxy-7,9-dioxo-2,3,4,5,7,9,13,13a-octahydro-2,5-methanopyrido[1′,2′: 4,5]pyrazino[2,1-b][1,3]oxazepine-10-carboxamide] | 6.1 nM | 
O=C(NCc1ccc(F)c(C(F)(F)F)c1)c1cn2c(c(O)c1=O)C(=O)N1[C@@H]3CC[C@@H](C3)O[C@H]1C2 [Compound 25, (2S,5R,13aS)—N-(4-fluoro-3-(trifluoromethyl)benzyl)-8-hydroxy-7,9-dioxo-2,3,4,5,7,9,13,13a-octahydro-2,5-methanopyrido[1′,2′:4,5]pyrazino[2,1-b][1,3]oxazepine-10-carboxamide] | 26.2 nM | 
O=C(NCc1ccc(Cl)c(F)c1)c1cn2c(c(O)c1=O)C(=O)N1[C@@H]3CC[C@@H](C3)O[C@H]1C2 [Compound 26, (2 S,5R,13aS)—N-(4-chloro-3-fluorobenzyl)-8-hydroxy-7,9-dioxo-2,3,4,5,7,9,13,13a-octahydro-2,5-methanopyrido[1′,2′: 4,5]pyrazino[2,1-b][1,3]oxazepine-10-carboxamide] | 10.3 nM | 
O=C(NC1(c2ccc(F)cc2F)CC1)c1cn2c(c(O)c1=O)C(=O)N1C(C2)O[C@H]2CC[C@@H]1C2 (stereo partly drawn) [Compound 27, (2 S,5R)—N-(1-(2,4-difluorophenyl)cyclopropyl)-8-hydroxy-7,9-dioxo-2,3,4,5,7,9,13,13a-octahydro-2,5-methanopyrido[1′,2′:4,5]pyrazino[2,1-b][1,3]oxazepine-10-carboxamide] | 4.4 nM | 
O=C(NC1(c2ccc(F)cc2F)CC1)c1cn2c(c(O)c1=O)C(=O)N1C(C2)O[C@H]2CCC[C@@H]1C2 (stereo partly drawn) [Compound 28, (2 S,6R)—N-(1-(2,4-difluorophenyl)cyclopropyl)-9-hydroxy-8,10-dioxo-3,4,5,6,8,10,14,14a-octahydro-2H-2,6-methanopyrido[1′,2′:4,5]pyrazino[2,1-b][1,3]oxazocine-11-carboxamide] | 15.6 nM | 
O=C(NC1(c2ccc(F)cc2F)CC1)c1cn2c(c(O)c1=O)C(=O)N1C(C2)O[C@@H]2CCC[C@H]1C2 (stereo partly drawn) [Compound 29, (2R,6S)—N-(1-(2,4-difluorophenyl)cyclopropyl)-9-hydroxy-8,10-dioxo-3,4,5,6,8,10,14,14a-octahydro-2H-2,6-methanopyrido[1′,2′:4,5]pyrazino[2,1-b][1,3]oxazocine-11-carboxamide] | 13.9 nM | 
O=C(NC1(c2ccc(F)cc2F)CC1)c1cn2c(c(O)c1=O)C(=O)N1C(C2)O[C@@H]2CC[C@H]1C2 (stereo partly drawn) [Compound 31, (2R,5S)—N-(1-(2,4-difluorophenyl)cyclopropyl)-8-hydroxy-7,9-dioxo-2,3,4,5,7,9,13,13a-octahydro-2,5-methanopyrido[1′,2′:4,5]pyrazino[2,1-b][1,3]oxazepine-10-carboxamide] | 9 nM | 
O=C(NC1(c2ccc(F)cc2F)CCC1)c1cn2c(c(O)c1=O)C(=O)N1C(C2)O[C@H]2CC[C@@H]1C2 (stereo partly drawn) [Compound 32, (2S,5R)—N-(1-(2,4-difluorophenyl)cyclobutyl)-8-hydroxy-7,9-dioxo-2,3,4,5,7,9,13,13a-octahydro-2,5-methanopyrido[1′,2′: 4,5]pyrazino[2,1-b][1,3]oxazepine-10-carboxamide] | 14 nM | 
O=C(NC1(c2ccc(F)cc2F)CCCC1)c1cn2c(c(O)c1=O)C(=O)N1C(C2)O[C@H]2CC[C@@H]1C2 (stereo partly drawn) [Compound 33, (2S,5R)—N-(1-(2,4-difluorophenyl)cyclopentyl)-8-hydroxy-7,9-dioxo-2,3,4,5,7,9,13,13a-octahydro-2,5-methanopyrido[1%2′: 4,5]pyrazino[2,1-b][1,3]oxazepine-10-carboxamide] | 43.5 nM | 
O=C(NC1(c2ccc(F)cc2F)CCCCC1)c1cn2c(c(O)c1=O)C(=O)N1C(C2)O[C@H]2CC[C@@H]1C2 (stereo partly drawn) [Compound 34, (2S,5R)—N-(1-(2,4-difluorophenyl)cyclohexyl)-8-hydroxy-7,9-dioxo-2,3,4,5,7,9,13,13a-octahydro-2,5-methanopyrido[1′,2′: 4,5]pyrazino[2,1-b][1,3]oxazepine-10-carboxamide] |  | 422 nM
O=C(NC1(c2ccc(F)cc2F)CCOCC1)c1cn2c(c(O)c1=O)C(=O)N1C(C2)O[C@H]2CC[C@@H]1C2 (stereo partly drawn) [Compound 35, (2S,5R)—N-(4-(2,4-difluorophenyl)tetrahydro-2H-pyran-4-yl)-8-hydroxy-7,9-dioxo-2,3,4,5,7,9,13,13a-octahydro-2,5-methanopyrido[1′,2′:4,5]pyrazino[2,1-b][1,3]oxazepine-10-carboxamide] | 157 nM | 
O=C(N[C@@H](c1ccc(F)cc1F)C(F)(F)F)c1cn2c(c(O)c1=O)C(=O)N1C(C2)O[C@H]2CC[C@@H]1C2 (stereo partly drawn) [Compound 36, (2S,5R)—N—((S)-1-(2,4-difluorophenyl)-2,2,2-trifluoroethyl)-8-hydroxy-7,9-dioxo-2,3,4,5,7,9,13,13a-octahydro-2,5-methanopyrido[1′,2′:4,5]pyrazino[2,1-b][1,3]oxazepine-10-carboxamide] | 7.6 nM | 
C[C@H]1CO[C@@H]2Cn3cc(C(=O)NC4(c5ccc(F)cc5F)CC4)c(=O)c(O)c3C(=O)N12 [Compound 37, (3S,11aR)—N-(1-(2,4-difluorophenyl)cyclopropyl)-6-hydroxy-3-methyl-5,7-dioxo-2,3,5,7,11,11a-hexahydrooxazolo[3,2-a]pyrido[1,2-d]pyrazine-8-carboxamide] | 10.2 nM | 
C[C@H]1C[C@@H]2C[C@H]1O[C@H]1Cn3cc(C(=O)NCc4ccc(F)cc4F)c(=O)c(O)c3C(=O)N21 [Compound 39, (2R,3S,5R,13aS)—N-(2,4-difluorobenzyl)-8-hydroxy-3-methyl-7,9-dioxo-2,3,4,5,7,9,13,13a-octahydro-2,5-methanopyrido[1′,2′:4,5]pyrazino[2,1-b][1,3]oxazepine-10-carboxamide] |  | 3.6 nM
O=C(NCc1c(F)cc(F)cc1F)c1cn2c(c(O)c1=O)C(=O)N1[C@H]3CC[C@H](C3)[C@@H]1C2 [Compound 41, (1R,4S,12aR)-7-hydroxy-6,8-dioxo-N-(2,4,6-trifluorobenzyl)-1,2,3,4,6,8,12,12a-octahydro-1,4-methanodipyrido[1,2-a:1′,2′-d]pyrazine-9-carboxamide] | 2.1 nM | 
O=C(NCc1c(F)cc(F)cc1F)c1cn2c(c(O)c1=O)C(=O)N1[C@H]3CC[C@H](C3)O[C@@H]1C2 [Compound 42, (2R,5S,13aR)-8-hydroxy-7,9-dioxo-N-(2,4,6-trifluorobenzyl)-2,3,4,5,7,9,13,13a-octahydro-2,5-methanopyrido[1′,2′:4,5]pyrazino[2,1-b][1,3]oxazepine-10-carboxamide] | 2.5 nM | 
C[C@@H](NC(=O)c1cn2c(c(O)c1=O)C(=O)N1[C@H]3CC[C@H](C3)[C@@H]1C2)c1ccc(F)cc1F [Compound 43, (12aR)—N—((R)-1-(2,4-difluorophenyl)ethyl)-7-hydroxy-6,8-dioxo-1,2,3,4,6,8,12,12a-octahydro-1,4-methanodipyrido[1,2-a:1′,2′-d]pyrazine-9-carboxamide] | 6.9 nM | 
